The test addresses T1, KRAS G12C 1-169, his-tagged protein, GDP-loaded (Homo sapiens, UniProt P01116, G12C).
T1 construct: KRAS G12C 1-169, his-tagged protein, GDP-loaded
Nature of the test: Biochemical assay: covalent modification of KRAS G12C measured by mass spectrometry (RapidFire/TOF or Q-Exactive). Conditions: covalent binding to KRAS G12C; compounds of structure (I). An outline of the steps:
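GDP-loaded his-tagged KRAS G12C 1-169 at 2 μM in 20 mM Hepes, 150 mM NaCl, 1 mM MgCl2 incubated at room temperature with compound (10, 30 or 100 μM final, 2% DMSO) for 30 min, 2 h or 24 h, then quenched with formic acid. Intact-protein LC-MS (RapidFire/TOF or Q-Exactive) with deconvolution quantified modified versus unmodified protein.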

23 compounds from patent US10829458B2 (Araxes Pharma LLC, priority 2015, dated 2020) can be followed below.

The structures appear in SMILES notation.

As to `C=CC(=O)N1CCN(c2nc(OCCc3ncccn3)nc3c(F)c(-c4c(C)ccc5[nH]ncc45)c(Cl)cc23)CC1` [Example I-139, 1-(4-(6-chloro-8-fluoro-7-(5-methyl-1H-indazol-4-yl)-2-(2-(pyrimidin-2-yl)ethoxy)quinazolin-4-yl)piperazin-1-yl) prop-2-en-1-one], the Binding % result is “+++ (+++ indicates binding activity greater than 90%)”.

Regarding `C=CC(=O)N1CCN(c2nc(OCCc3ncccn3)nc3c(F)c(-c4c(O)cccc4F)c(Cl)cc23)CC1` [Example I-140, 1-(4-(6-chloro-8-fluoro-7-(2-fluoro-6-hydroxyphenyl)-2-(2-(pyrimidin-2-yl)ethoxy)quinazolin-4-yl)piperazin-1-yl) prop-2-en-1-one], the Binding % result is reported as “+++ (+++ indicates binding activity greater than 90%)”.

For `C=CC(=O)N1CCN(c2nc(NCCN3CC(F)(F)C3)nc3c(F)c(-c4c(C)ccc5[nH]ncc45)c(Cl)cc23)CC1` [Example I-141, 1-(4-(6-chloro-2-(2-(3,3-difluoro-azetidin-1-yl)ethylamino)-8-fluoro-7-(5-methyl-1H-indazol-4-yl)quinazolin-4-yl)piperazin-1-yl) prop-2-en-1-one], the Binding % result is reported as “+++ (+++ indicates binding activity greater than 90%)”.

As for `C=CC(=O)N1CCN(c2nc(NCCc3ccccn3)nc3c(F)c(-c4c(C)ccc5[nH]ncc45)c(Cl)cc23)CC1` [Example I-142, 1-(4-(6-chloro-8-fluoro-7-(5-methyl-1H-indazol-4-yl)-2-(2-(pyridin-2-yl)ethylamino)quinazolin-4-yl)piperazin-1-yl) prop-2-en-1-one], the Binding % result is given as “+++ (+++ indicates binding activity greater than 90%)”.

Regarding `C=CC(=O)N1CCN(c2nc(NCCN3CC(F)(F)C3)nc3c(F)c(-c4c(O)cccc4F)c(Cl)cc23)CC1` [Example I-143, 1-(4-(6-chloro-2-(2-(3,3-difluoro-azetidin-1-yl)ethylamino)-8-fluoro-7-(2-fluoro-6-hydroxyphenyl)quinazolin-4-yl)piperazin-1-yl) prop-2-en-1-one], the Binding % result is “+++ (+++ indicates binding activity greater than 90%)”.

In the case of `C=CC(=O)N1CCN(c2nc(N3CC(N(CC)CC)C3)nc3c(F)c(-c4c(C)ccc5[nH]ncc45)c(Cl)cc23)CC1` [Example I-144, 1-(4-(6-chloro-2-(3-(diethylamino)azetidin-1-yl)-8-fluoro-7-(5-methyl-1H-indazol-4-yl)quinazolin-4-yl)piperazin-1-yl) prop-2-en-1-one], the Binding % entry is listed as “+++ (+++ indicates binding activity greater than 90%)”.

On to `C=CC(=O)N1CCN(c2nc(OCCN3CC(F)(F)C3)nc3c(F)c(-c4c(C)ccc5[nH]ncc45)c(Cl)cc23)CC1` [Example I-145, 1-(4-(6-chloro-2-(2-(3,3-difluoro-azetidin-1-yl)ethoxy)-8-fluoro-7-(5-methyl-1H-indazol-4-yl)quinazolin-4-yl)piperazin-1-yl) prop-2-en-1-one], for which the Binding % result is on record as “+++ (+++ indicates binding activity greater than 90%)”.

For `C=CC(=O)N1CCN(c2nc(OCCN3CCC(F)(F)C3)nc3c(F)c(-c4c(C)ccc5[nH]ncc45)c(Cl)cc23)CC1` [Example I-146, 1-(4-(6-chloro-2-(2-(3,3-difluoro-pyrrolidin-1-yl)ethoxy)-8-fluoro-7-(5-methyl-1H-indazol-4-yl)quinazolin-4-yl)piperazin-1-yl) prop-2-en-1-one], the Binding % entry was “+++ (+++ indicates binding activity greater than 90%)”.

For the compound `C=CC(=O)N1CCN(c2nc(N3CCCC3)nc3c(F)c(-c4c(O)cccc4F)c(Cl)cc23)CC1` [Example I-147, 1-(4-(6-chloro-8-fluoro-7-(2-fluoro-6-hydroxyphenyl)-2-(pyrrolidin-1-yl)quinazolin-4-yl)piperazin-1-yl)prop-2-en-1-one], the Binding % result is given as “++ (++ indicates binding activity from 50 to 90%)”.

Take `C=CC(=O)N1CCN(c2nc(N3CC4(COC4)C3)nc3c(F)c(-c4c(O)cccc4F)c(Cl)cc23)CC1` [Example I-148, 1-(4-(6-chloro-8-fluoro-7-(2-fluoro-6-hydroxyphenyl)-2-(2-oxa-6-azaspiro[3.3]heptan-6-yl)quinazolin-4-yl)piperazin-1-yl) prop-2-en-1-one]: the Binding % entry is “+++ (+++ indicates binding activity greater than 90%)”.

Take `C=CC(=O)N1CCN(c2nc(N3CC(C)(N(C)C)C3)nc3c(F)c(-c4c(O)cccc4F)c(Cl)cc23)CC1` [Example I-149, 1-(4-(6-chloro-2-(3-(dimethyl-amino)-3-methyl-azetidin-1-yl)-8-fluoro-7-(2-fluoro-6-hydroxyphenyl)quinazolin-4-yl)piperazin-1-yl) prop-2-en-1-one]: the Binding % entry was “+++ (+++ indicates binding activity greater than 90%)”.

Turning to `C=CC(=O)N1CCN(c2nc(NCC3CCN(C4CC4)CC3)nc3c(F)c(-c4c(O)cccc4F)c(Cl)cc23)CC1` [Example I-150, 1-(4-(6-chloro-2-((1-cyclopropyl-piperidin-4-yl)methylamino)-8-fluoro-7-(2-fluoro-6-hydroxyphenyl)quinazolin-4-yl)piperazin-1-yl) prop-2-en-1-one], the Binding % entry is “+++ (+++ indicates binding activity greater than 90%)”.

As for `C=CC(=O)N1CCN(c2nc(NCCN(CC)CC)nc3c(F)c(-c4c(O)cccc4F)c(Cl)cc23)CC1` [Example I-151, l-(4-(6-chloro-2-(2-(diethyl-amino)ethylamino)-8-fluoro-7-(2-fluoro-6-hydroxyphenyl)quinazolin-4-yl)piperazin-1-yl) prop-2-en-1-one], the Binding % result is listed as “+++ (+++ indicates binding activity greater than 90%)”.

As for `C=CC(=O)N1CCN(c2nc(N3CC(COC)C3)nc3c(F)c(-c4c(C)ccc5[nH]ncc45)c(Cl)cc23)CC1` [Example I-152, 1-(4-(6-chloro-8-fluoro-2-(3-(methoxy-methyl)azetidin-1-yl)-7-(5-methyl-1H-indazol-4-yl)quinazolin-4-yl)piperazin-1-yl) prop-2-en-1-one], the Binding % result is given as “+++ (+++ indicates binding activity greater than 90%)”.

With `C=CC(=O)N1CCN(c2nc(NCCc3ccccn3)nc3c(F)c(-c4c(O)cccc4F)c(Cl)cc23)CC1` [Example I-153, 1-(4-(6-chloro-8-fluoro-7-(2-fluoro-6-hydroxyphenyl)-2-(2-(pyridin-2-yl)ethylamino)quinazolin-4-yl)piperazin-1-yl) prop-2-en-1-one], the Binding % result was “+++ (+++ indicates binding activity greater than 90%)”.

Consider `C=CC(=O)N1CCN(c2nc(OC)nc3c(OC)c(-c4c(O)cccc4F)c(Cl)cc23)CC1` [Example I-154, 1-(4-(6-chloro-7-(2-fluoro-6-hydroxyphenyl)-2,8-dimethoxy-quinazolin-4-yl)piperazin-1-yl) prop-2-en-1-one], for which the Binding % entry is “+++ (+++ indicates binding activity greater than 90%)”.

Take `C=CC(=O)N1CCN(c2nc(N3CC4(CCOC4)C3)nc3c(F)c(-c4c(O)cccc4F)c(Cl)cc23)CC1` [Example I-155, 1-(4-(6-chloro-8-fluoro-7-(2-fluoro-6-hydroxyphenyl)-2-(6-oxa-2-azaspiro[3,4]octan-2-yl)quinazolin-4-yl)piperazin-1-yl) prop-2-en-1-one]: the Binding % result is given as “+++ (+++ indicates binding activity greater than 90%)”.

Turning to `C=CC(=O)N1CCN(c2nc(N3CC4(CCOC4)C3)nc3c(F)c(-c4c(C)ccc5[nH]ncc45)c(Cl)cc23)CC1` [Example I-156, 1-(4-(6-chloro-8-fluoro-7-(5-methyl-1H-indazol-4-yl)-2-(6-oxa-2-azaspiro[3,4]octan-2-yl)quinazolin-4-yl)piperazin-1-yl) prop-2-en-1-one], the Binding % entry is reported as “+++ (+++ indicates binding activity greater than 90%)”.

Turning to `C=CC(=O)N1CCN(c2nc(N3CC4(CN(C)C4)C3)nc3c(F)c(-c4c(C)ccc5[nH]ncc45)c(Cl)cc23)CC1` [Example I-157, 1-(4-(6-chloro-8-fluoro-7-(5-methyl-1H-indazol-4-yl)-2-(6-methyl-2,6-diazaspiro [3.3]heptan-2-yl)quinazolin-4-yl)piperazin-1-yl) prop-2-en-1-one], the Binding % entry is reported as “+++ (+++ indicates binding activity greater than 90%)”.

Take `C=CC(=O)N1CCN(c2nc(OCC3CN(c4ncccc4F)C3)nc3c(F)c(-c4c(C)ccc5[nH]ncc45)c(Cl)cc23)CC1` [Example I-158, 1-(4-(6-chloro-8-fluoro-2-((1-(3-fluoropyridin-2-yl)azetidin-3-yl)methoxy)-7-(5-methyl-1H-indazol-4-yl)quinazolin-4-yl)piperazin-1-yl) prop-2-en-1-one]: the Binding % entry is on record as “+++ (+++ indicates binding activity greater than 90%)”.

As for `C=CC(=O)N1CCN(c2nc(N3CC(CN(C)C)C3)nc3c(F)c(-c4c(C)ccc5[nH]ncc45)c(Cl)cc23)CC1` [Example I-159, 1-(4-(6-chloro-2-(3-((dimethyl-amino)methyl)azetidin-1-yl)-8-fluoro-7-(5-methyl-1H-indazol-4-yl)quinazolin-4-yl)piperazin-1-yl) prop-2-en-1-one], the Binding % entry is “+++ (+++ indicates binding activity greater than 90%)”.

Take `C=CC(=O)N1CCN(c2nc(NCC3CCN(C4CC4)CC3)nc3c(F)c(-c4c(C)ccc5[nH]ncc45)c(Cl)cc23)CC1` [Example I-160, 1-(4-(6-chloro-2-((1-cyclo-propyl-piperidin-4-yl)methylamino)-8-fluoro-7-(5-methyl-1H-indazol-4-yl)quinazolin-4-yl)piperazin-l-yl) prop-2-en-1-one]: the Binding % entry is reported as “+++ (+++ indicates binding activity greater than 90%)”.

`C=CC(=O)N1CCN(c2nc(NCCN(CC)CC)nc3c(F)c(-c4c(C)ccc5[nH]ncc45)c(Cl)cc23)CC1` [Example I-161, 1-(4-(6-chloro-2-(2-(diethyl-amino)ethylamino)-8-fluoro-7-(5-methyl-1H-indazol-4-yl)quinazolin-4-yl)piperazin-1-yl) prop-2-en-1-one]: the Binding % entry is “+++ (+++ indicates binding activity greater than 90%)”.
